Test results from patent publication US8633207B2, “Quinazoline compounds and methods of use thereof” (Ambit Biosciences Corporation, priority 2010, dated 2014).

Tests used:
[1] = tested on: GM-CSFR/JAK2/STAT5 pathway; experiment: csTF-1 cell-based reporter assay; conditions: Homo sapiens; csTF-1 cells, GM-CSF at 2 ng/mL, 4 hours; read-out: Cell Assay: CS TF-1 reporter assay IC50
Procedure: csTF-1 Cell-Based Reporter Assay
csTF-1 cells are derived from the human erythroleukemia cell line that is growth dependent on GM-CSF and has an intact GM-CSFR/JAK2/STAT5 pathway. The cell line contains stably integrated beta-lactamase reporter gene under the control of the […] (irf 1) response element recognized by the activated transcription factor STATS. csTF-1 cells (Invitrogen K1219) were washed with assay media (97% OPTIMEM/0.5% dialyzed FBS/0.1 mM NEAA/1 mM Na pyr/P/S) and seeded in the same media at 5×10^5 cell/mL in T150 flask. After 16 hour incubation, cells were seeded at 2×10^5 cell/well in 50 μl volume, into Costar, clear bottom, 96-well assay plates. Serial dilutions of compounds were added to the plates with final DMSO concentration at 0.5% and GM-CSF at 2 ng/mL and the plates were then incubated at […] and 5% CO2 for 4 hours. The plates were brought to room temperature before adding Substrate Mixture according to manufacturer's protocol (Invitrogen, Catalog #K1085). The assay plates containing the substrate mixture were incubated in the dark at room temperature for 2 hours. Blue and green fluorescence was measured with excitation at 409 nm and emission at 460 nm (for blue) and excitation at 409 nm and emission at 530 nm (for green) using Spectra Max Gemini EM.

JAK3 = biological target: T1, JAK3 (Homo sapiens, UniProt P52333); experiment: Competition binding assay to determine Kd against JAK kinases: JAK3
T1 construct: made in house; host or cells: T7 phage display, or HEK-293 cells (alternative)
T1 sequence (P52333 1-1124): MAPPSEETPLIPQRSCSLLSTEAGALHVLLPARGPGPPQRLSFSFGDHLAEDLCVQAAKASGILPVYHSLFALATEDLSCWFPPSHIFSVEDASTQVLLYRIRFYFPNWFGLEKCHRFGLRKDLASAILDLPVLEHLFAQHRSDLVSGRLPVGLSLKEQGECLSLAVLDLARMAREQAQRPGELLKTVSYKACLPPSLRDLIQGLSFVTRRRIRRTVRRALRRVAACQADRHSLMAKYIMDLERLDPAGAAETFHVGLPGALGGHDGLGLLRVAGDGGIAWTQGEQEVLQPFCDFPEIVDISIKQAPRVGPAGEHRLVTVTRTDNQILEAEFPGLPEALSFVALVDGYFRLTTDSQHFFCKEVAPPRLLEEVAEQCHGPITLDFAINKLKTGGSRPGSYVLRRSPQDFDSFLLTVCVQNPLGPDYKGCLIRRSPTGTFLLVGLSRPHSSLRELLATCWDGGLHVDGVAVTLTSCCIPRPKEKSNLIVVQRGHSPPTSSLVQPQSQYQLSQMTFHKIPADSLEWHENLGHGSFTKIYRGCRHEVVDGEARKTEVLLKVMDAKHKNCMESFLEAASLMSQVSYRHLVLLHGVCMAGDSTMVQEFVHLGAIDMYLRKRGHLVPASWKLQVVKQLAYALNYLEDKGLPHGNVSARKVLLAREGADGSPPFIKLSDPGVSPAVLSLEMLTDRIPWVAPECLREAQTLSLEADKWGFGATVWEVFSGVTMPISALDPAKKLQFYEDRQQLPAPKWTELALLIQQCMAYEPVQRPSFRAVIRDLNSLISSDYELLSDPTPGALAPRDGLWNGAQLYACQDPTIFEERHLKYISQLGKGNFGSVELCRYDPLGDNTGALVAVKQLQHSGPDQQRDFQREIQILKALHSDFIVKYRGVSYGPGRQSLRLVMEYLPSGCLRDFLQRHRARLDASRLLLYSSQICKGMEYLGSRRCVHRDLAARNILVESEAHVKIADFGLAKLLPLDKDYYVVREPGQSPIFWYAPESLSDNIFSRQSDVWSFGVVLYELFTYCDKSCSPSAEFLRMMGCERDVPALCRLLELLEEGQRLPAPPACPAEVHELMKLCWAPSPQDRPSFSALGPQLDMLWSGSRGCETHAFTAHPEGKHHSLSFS
Source text: (§1) Competition Binding Assay to Determine Binding Constants (Kd) of the Compounds Against JAK Kinases
(§2) Competition binding assays used herein were developed, validated and performed as described in Fabian et al., Nature Biotechnology 2005, 23, 329-336. Kinases were produced as fusions to T7 phage (See, Fabian et al. or WO04/015142) or alternatively, the kinases were expressed in HEK-293 cells and subsequently tagged with DNA for PCR detection (See, WO08/005,310). For the binding assays, streptavidin-coated magnetic beads were treated with biotinylated affinity ligands for 30 min at rt to generate affinity resins. The liganded beads were blocked with excess biotin and washed with blocking buffer (SeaBlock (Pierce), 1% BSA, 0.05% Tween 20, 1 mM DTT) to remove unbound ligand and to reduce non-specific binding. Binding reactions were assembled by combining kinase, liganded affinity beads, and test compounds in 1× binding buffer (20% SeaBlock, 0.17×PBS, 0.05% Tween 20, 6 mM DTT). Test compounds were prepared as 100× stocks in DMSO and rapidly diluted into the aqueous environment. DMSO was added to control assays lacking a test compound. Primary screen interactions were performed in polypropylene 384-well plates in a final volume of 34 μL, while Kd determinations were performed in polystyrene 96-well plates in a final volume of 135 μL. The assay plates were incubated at room temperature with shaking for 1 hour, long enough for binding reactions to reach equilibrium, and the affinity beads were washed extensively with wash buffer (1×PBS, 0.05% Tween 20) to remove unbound protein. The beads were then resuspended in elution buffer (1×PBS, 0.05% Tween 20, 2 μM non-biotinylated affinity ligand) and incubated at room temperature with shaking for 30 min. The kinase concentration in the eluates was measured by quantitative PCR. Each kinase was tested individually against each compound. Kds were determined using eleven serial threefold dilutions. A selectivity score, which is a quantitative measure of selectivity of a compound against a panel of enzymes, may be calculated for a compound by dividing the number of enzymes for which a compound meets a set criteria, (for example, a binding constant of 100 nM or less), by the total number of enzymes tested.

Tyk2 = biological target: T2, Tyk2 (Homo sapiens, UniProt P29597); experiment: Competition binding assay to determine Kd against JAK kinases: Tyk2
T2 construct: made in house; host or cells: T7 phage display, or HEK-293 cells (alternative)
T2 sequence (P29597 whole entry): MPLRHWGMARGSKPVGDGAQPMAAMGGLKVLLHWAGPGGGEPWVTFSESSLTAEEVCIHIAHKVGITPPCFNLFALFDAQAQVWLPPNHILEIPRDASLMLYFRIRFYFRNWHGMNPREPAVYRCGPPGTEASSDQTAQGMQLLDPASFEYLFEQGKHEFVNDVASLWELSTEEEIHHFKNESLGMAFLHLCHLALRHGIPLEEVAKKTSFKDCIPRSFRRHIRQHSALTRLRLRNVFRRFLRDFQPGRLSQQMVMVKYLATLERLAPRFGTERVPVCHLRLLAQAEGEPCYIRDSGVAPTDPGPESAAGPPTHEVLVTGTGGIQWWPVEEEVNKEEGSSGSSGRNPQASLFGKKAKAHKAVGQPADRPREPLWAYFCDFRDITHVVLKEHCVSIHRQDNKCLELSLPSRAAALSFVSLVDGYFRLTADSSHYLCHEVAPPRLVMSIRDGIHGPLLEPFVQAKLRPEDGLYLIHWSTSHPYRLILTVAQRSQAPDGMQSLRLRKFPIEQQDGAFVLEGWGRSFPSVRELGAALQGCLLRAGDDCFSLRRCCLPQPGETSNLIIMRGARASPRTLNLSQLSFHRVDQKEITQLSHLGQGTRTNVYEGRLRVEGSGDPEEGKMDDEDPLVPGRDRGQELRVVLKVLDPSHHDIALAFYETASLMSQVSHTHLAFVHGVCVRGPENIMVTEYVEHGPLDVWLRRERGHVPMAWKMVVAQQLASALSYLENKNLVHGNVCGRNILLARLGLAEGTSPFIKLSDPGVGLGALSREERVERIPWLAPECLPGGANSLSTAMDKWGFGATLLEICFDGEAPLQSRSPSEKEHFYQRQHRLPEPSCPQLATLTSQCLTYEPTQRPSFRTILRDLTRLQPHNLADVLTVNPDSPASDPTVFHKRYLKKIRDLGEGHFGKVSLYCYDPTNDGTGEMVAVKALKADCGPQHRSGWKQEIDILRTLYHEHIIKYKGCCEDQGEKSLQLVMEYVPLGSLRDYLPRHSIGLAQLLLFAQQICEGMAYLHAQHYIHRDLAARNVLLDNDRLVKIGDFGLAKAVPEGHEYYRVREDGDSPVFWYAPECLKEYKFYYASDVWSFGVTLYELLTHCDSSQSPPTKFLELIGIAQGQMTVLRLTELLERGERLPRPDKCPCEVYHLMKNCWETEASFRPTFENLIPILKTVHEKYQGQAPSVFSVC
Source text: as §1, §2

JAK2 = biological target: T3, JAK2 (Homo sapiens, UniProt O60674); experiment: Competition binding assay to determine Kd against JAK kinases: JAK2
T3 construct: made in house; host or cells: T7 phage display, or HEK-293 cells (alternative)
T3 sequence (O60674 whole entry): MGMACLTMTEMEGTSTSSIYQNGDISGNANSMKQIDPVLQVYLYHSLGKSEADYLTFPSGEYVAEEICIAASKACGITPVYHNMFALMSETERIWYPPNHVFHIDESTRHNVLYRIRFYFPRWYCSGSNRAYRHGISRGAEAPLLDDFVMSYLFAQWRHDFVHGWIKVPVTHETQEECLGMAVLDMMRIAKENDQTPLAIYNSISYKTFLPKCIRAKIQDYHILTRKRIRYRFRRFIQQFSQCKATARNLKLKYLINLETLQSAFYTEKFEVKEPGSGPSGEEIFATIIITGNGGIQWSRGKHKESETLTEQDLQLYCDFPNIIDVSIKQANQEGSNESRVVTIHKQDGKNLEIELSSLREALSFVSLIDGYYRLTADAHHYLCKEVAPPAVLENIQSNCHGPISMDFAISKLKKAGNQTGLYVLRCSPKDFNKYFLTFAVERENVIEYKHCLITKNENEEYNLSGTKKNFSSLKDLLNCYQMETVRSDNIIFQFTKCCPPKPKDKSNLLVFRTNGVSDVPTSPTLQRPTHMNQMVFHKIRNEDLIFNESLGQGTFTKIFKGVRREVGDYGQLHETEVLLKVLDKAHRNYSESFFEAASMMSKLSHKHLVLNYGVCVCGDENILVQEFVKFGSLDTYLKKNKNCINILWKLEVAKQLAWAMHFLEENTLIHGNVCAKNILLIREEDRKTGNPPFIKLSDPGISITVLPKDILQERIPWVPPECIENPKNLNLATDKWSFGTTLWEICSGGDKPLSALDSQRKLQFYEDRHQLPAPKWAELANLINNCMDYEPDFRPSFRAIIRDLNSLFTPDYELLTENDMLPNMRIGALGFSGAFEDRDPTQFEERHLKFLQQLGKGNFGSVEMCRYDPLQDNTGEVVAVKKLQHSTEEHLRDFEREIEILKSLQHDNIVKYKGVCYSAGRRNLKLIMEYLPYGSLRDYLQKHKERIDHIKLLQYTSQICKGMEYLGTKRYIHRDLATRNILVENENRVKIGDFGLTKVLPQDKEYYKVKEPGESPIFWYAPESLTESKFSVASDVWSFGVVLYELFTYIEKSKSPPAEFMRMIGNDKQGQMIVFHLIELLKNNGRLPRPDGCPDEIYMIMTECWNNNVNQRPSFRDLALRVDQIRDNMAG
Source text: as §1, §2

SMILES | IC50 [1] [nM] | Kd (JAK3) [nM] | Kd (Tyk2) [nM] | Kd (JAK2) [nM]
Cc1cnc(Nc2nc(C(F)(F)c3ccc(F)cn3)nc3ccccc23)s1 [Example 30, N-(2-(difluoro(5-fluoropyridin-2-yl)methyl)quinazolin-4-yl)-5-methylthiazol-2-amine] | 100 to 500 | > 100 | 10 to 100 | 1 to 10
Fc1ccc(C(F)(F)c2nc(Nc3nc[nH]n3)c3ccccc3n2)nc1 [Example 31, 2-(difluoro(5-fluoropyridin-2-yl)methyl)-N-(1H-1,2,4-triazol-3-yl)quinazolin-4-amine] | > 500 | > 100 | 10 to 100 | > 10
Cc1cc(Nc2nc(C(F)(F)c3ccc(F)cn3)nc3c(C(F)(F)F)cccc23)n[nH]1 [Example 33, 2-(difluoro(5-fluoropyridin-2-yl)methyl)-N-(5-methyl-1H-pyrazol-3-yl)-8-(trifluoromethyl)quinazolin-4-amine] | 100 to 500 | > 100 | 10 to 100 | 1 to 10
Cc1cc(Nc2nc(C(F)(F)c3ccc(F)cn3)nc3c(OC(F)(F)F)cccc23)n[nH]1 [Example 34, 2-(difluoro(5-fluoropyridin-2-yl)methyl)-N-(5-methyl-1H-pyrazol-3-yl)-8-(trifluoromethoxy)quinazolin-4-amine] | 100 to 500 | 10 to 100 | ≤ 10 | 1 to 10
Cc1cc(Nc2nc(C(F)(F)c3ccc(F)cn3)nc3c(C#N)cccc23)n[nH]1 [Example 35, 2-(difluoro(5-fluoropyridin-2-yl)methyl)-4-((5-methyl-1H-pyrazol-3-yl)amino)quinazoline-8-carbonitrile] | 100 to 500 | 10 to 100 | ≤ 10 | ≤ 1
CCc1cccc2c(Nc3cc(C)[nH]n3)nc(C(F)(F)c3ccc(F)cn3)nc12 [Example 36, 2-(difluoro(5-fluoropyridin-2-yl)methyl)-8-ethyl-N-(5-methyl-1H-pyrazol-3-yl)quinazolin-4-amine] | 100 to 500 | 10 to 100 | ≤ 10 | ≤ 1
Cc1cc(Nc2nc(C(F)(F)c3ccc(F)cn3)nc3c(S(C)(=O)=O)cccc23)n[nH]1 [Example 37, 2-(difluoro(5-fluoropyridin-2-yl)methyl)-N-(5-methyl-1H-pyrazol-3-yl)-8-(methylsulfonyl)quinazolin-4-amine] | 100 to 500 | 10 to 100 | ≤ 10 | 1 to 10
Cc1cc(Nc2nc(C(F)(F)c3ccc(F)cn3)nc3cc(S(C)(=O)=O)ccc23)n[nH]1 [Example 38, 2-(difluoro(5-fluoropyridin-2-yl)methyl)-N-(5-methyl-1H-pyrazol-3-yl)-7-(methylsulfonyl)quinazolin-4-amine] | 100 to 500 | ≤ 10 | ≤ 10 | ≤ 1
Cc1cc(Nc2nc(C(F)(F)c3ccc(F)cn3)nc3c(C(N)=O)cccc23)n[nH]1 [Example 39, 2-(difluoro(5-fluoropyridin-2-yl)methyl)-4-((5-methyl-1H-pyrazol-3-yl)amino)quinazoline-8-carboxamide] | ≤ 100 | ≤ 10 | ≤ 10 | ≤ 1
Cc1cc(Nc2nc(C(F)(F)c3ncc(F)cn3)nc3c(Cl)cccc23)n[nH]1 [Example 40, 8-chloro-2-(difluoro(5-fluoropyrimidin-2-yl)methyl)-N-(5-methyl-1H-pyrazol-3-yl)quinazolin-4-amine] | ≤ 100 | 10 to 100 | ≤ 10 | ≤ 1
Cc1cc(Nc2nc(C(F)(F)c3ccc(F)cn3)nc3cc(C(N)=O)ccc23)n[nH]1 [Example 41, 2-(difluoro(5-fluoropyridin-2-yl)methyl)-4-((5-methyl-1H-pyrazol-3-yl)amino)quinazoline-7-carboxamide] | > 500 | ≤ 10 | ≤ 10 | ≤ 1
Cc1cc(Nc2nc(C(F)(F)c3ccc(F)cn3)nc3c(N4CCOCC4=O)cccc23)n[nH]1 [Example 42, 4-(2-(difluoro(5-fluoropyridin-2-yl)methyl)-4-((5-methyl-1H-pyrazol-3-yl)amino)quinazolin-8-yl)morpholin-3-one] | 100 to 500 | ≤ 10 | ≤ 10 | ≤ 1
COc1cccc2c(Nc3cc(C)[nH]n3)nc(C(F)(F)c3ccc(F)cn3)nc12 [Example 43, 2-(difluoro(5-fluoropyridin-2-yl)methyl)-8-methoxy-N-(5-methyl-1H-pyrazol-3-yl)quinazolin-4-amine] | ≤ 100 | ≤ 10 | ≤ 10 | ≤ 1
Cc1cc(Nc2nc(C(F)(F)c3ccc(F)cn3)nc3c(NC=O)cccc23)n[nH]1 [Example 44, N-(2-(difluoro(5-fluoropyridin-2-yl)methyl)-4-((5-methyl-1H-pyrazol-3-yl)amino)quinazolin-8-yl)formamide] | ≤ 100 | ≤ 10 | ≤ 10 | ≤ 1
Cc1cc(Nc2nc(C(F)(F)c3ccc(F)cn3)nc3c(C(=O)NC4COC4)cccc23)n[nH]1 [Example 45, 2-(difluoro(5-fluoropyridin-2-yl)methyl)-4-((5-methyl-1H-pyrazol-3-yl)amino)-N-(oxetan-3-yl)quinazoline-8-carboxamide] | ≤ 100 | ≤ 10 | ≤ 10 | ≤ 1
Cc1cc(Nc2nc(C(F)(F)c3ccc(F)cn3)nc3c(O)cccc23)n[nH]1 [Example 46, 2-(difluoro(5-fluoropyridin-2-yl)methyl)-4-((5-methyl-1H-pyrazol-3-yl)amino)quinazolin-8-ol] | > 500 | ≤ 10 | ≤ 10 | ≤ 1
